Results from patent publication US12466809B2, “CDK2/5 degraders and uses thereof” (DANA-FARBER CANCER INSTITUTE, INC., priority 2019, dated 2025).

Legend:
CDK2/Cyclin A = CDK2/Cyclin A (Homo sapiens (Human), UniProt P24941); assay: Invitrogen Z'-LYTE kinase assay CDK2/Cyclin A (assay ID 315, Km app, 10-point titration); type: biochemical; conditions: Km app ATP
From the text: (§1) CDK2 and CDK5 IC50 data were attained through the use of Invitrogen™ commercial assays. The method for CDK2 (assay ID: 315, kinase|Z'-LYTE™|CDK2/Cyclin A|Km app) used a 10-point titration. The method for CDK5 (assay ID: 318, kinase|Z'-LYTE™|CDK5/p25|Km app) used a 10-point titration.

CDK5/p25 = CDK5/p25 (Homo sapiens (Human), UniProt Q00535); assay: Invitrogen Z'-LYTE kinase assay CDK5/p25 (assay ID 318, Km app, 10-point titration); type: biochemical; conditions: CDK5/p25, Km app ATP
From the text: as §1

CDK5/p25, sequence (Q00535 whole entry): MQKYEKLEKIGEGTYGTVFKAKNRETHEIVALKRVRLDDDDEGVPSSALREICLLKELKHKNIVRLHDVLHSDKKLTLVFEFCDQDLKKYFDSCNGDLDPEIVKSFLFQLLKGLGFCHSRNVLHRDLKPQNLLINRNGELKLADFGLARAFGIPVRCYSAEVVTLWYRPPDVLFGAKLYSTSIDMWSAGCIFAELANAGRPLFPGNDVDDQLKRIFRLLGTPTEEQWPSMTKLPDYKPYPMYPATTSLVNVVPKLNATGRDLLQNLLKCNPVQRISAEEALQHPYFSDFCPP
CDK5/p25, sequence (Q15078 99-307 partner): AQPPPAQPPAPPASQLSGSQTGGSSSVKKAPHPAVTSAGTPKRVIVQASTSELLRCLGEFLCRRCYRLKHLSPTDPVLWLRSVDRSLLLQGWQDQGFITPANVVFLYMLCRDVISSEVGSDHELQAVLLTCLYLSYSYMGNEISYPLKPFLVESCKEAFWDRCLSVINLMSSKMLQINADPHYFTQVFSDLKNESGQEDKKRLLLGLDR

Row | Compound | IC50 (CDK2/Cyclin A) | IC50 (CDK5/p25)
1 | NC(=O)c1c(F)cccc1Nc1nc(NC2CCN(S(=O)(=O)CCNC(=O)CCOCCOCCOCCOCCNc3cccc4c3C(=O)N(C3CCC(=O)NC3=O)C4=O)CC2)ncc1Br (stereo not drawn) [Compound 1, N-(2-((4-((5-bromo-4-((2-carbamoyl-3-fluorophenyl)amino)pyrimidin-2-yl)amino)piperidin-1-yl)sulfonyl)ethyl)-1-((2-(2,6-dioxopiperidin-3-yl)-1,3-dioxoisoindolin-4-yl)amino)-3,6,9,12-tetraoxapentadecan-15-amide] | 6.4 nM | 8.1 nM
2 | NC(=O)c1c(F)cccc1Nc1nc(NC2CCN(S(=O)(=O)CCNC(=O)CCOCCNc3cccc4c3C(=O)N(C3CCC(=O)NC3=O)C4=O)CC2)ncc1Br (stereo not drawn) [Compound 2, 2-((5-bromo-2-((1-((2-(3-(2-((2-(2,6-dioxopiperidin-3-yl)-1,3-dioxoisoindolin-4-yl)amino)ethoxy)propanamido)ethyl)sulfonyl)piperidin-4-yl)amino)pyrimidin-4-yl)amino)-6-fluorobenzamide] | 5.1 nM | 3.8 nM
3 | NC(=O)c1c(F)cccc1Nc1nc(NC2CCN(S(=O)(=O)CCNC(=O)CCOCCOCCOc3cccc4c3C(=O)N(C3CCC(=O)NC3=O)C4=O)CC2)ncc1Br (stereo not drawn) [Compound 3, 2-((5-bromo-2-((1-((2-(3-(2-(2-((2-(2,6-dioxopiperidin-3-yl)-1,3-dioxoisoindolin-4-yl)oxy)ethoxy)ethoxy)propanamido)ethyl)sulfonyl)piperidin-4-yl)amino)pyrimidin-4-yl)amino)-6-fluorobenzamide] | 4.9 nM | 4.8 nM
4 | NC(=O)c1c(F)cccc1Nc1nc(NC2CCN(S(=O)(=O)CCNC(=O)CCOCCOCCOCCOCCOCCOCCOCCOCCNc3cccc4c3C(=O)N(C3CCC(=O)NC3=O)C4=O)CC2)ncc1Br (stereo not drawn) [Compound 4, N-(2-((4-((5-bromo-4-((2-carbamoyl-3-fluorophenyl)amino)pyrimidin-2-yl)amino)piperidin-1-yl)sulfonyl)ethyl)-1-((2-(2,6-dioxopiperidin-3-yl)-1,3-dioxoisoindolin-4-yl)amino)-3,6,9,12,15,18,21,24-octaoxaheptacosan-27-amide] | 7.3 nM | 8.4 nM
5 | NC(=O)c1c(F)cccc1Nc1nc(NC2CCN(S(=O)(=O)CCNC(=O)CCCCCCCOc3cccc4c3C(=O)N(C3CCC(=O)NC3=O)C4=O)CC2)ncc1Br (stereo not drawn) [Compound 6, 2-((5-bromo-2-((1-((2-(8-((2-(2,6-dioxopiperidin-3-yl)-1,3-dioxoisoindolin-4-yl)oxy)octanamido)ethyl)sulfonyl)piperidin-4-yl)amino)pyrimidin-4-yl)amino)-6-fluorobenzamide] | 17.1 nM | 11.8 nM
6 | NC(=O)c1c(F)cccc1Nc1nc(NC2CCN(S(=O)(=O)CCNC(=O)CCCCCOc3cccc4c3C(=O)N(C3CCC(=O)NC3=O)C4=O)CC2)ncc1Br (stereo not drawn) [Compound 7, 2-((5-bromo-2-((1-((2-(6-((2-(2,6-dioxopiperidin-3-yl)-1,3-dioxoisoindolin-4-yl)oxy)hexanamido)ethyl)sulfonyl)piperidin-4-yl)amino)pyrimidin-4-yl)amino)-6-fluorobenzamide] | 20.5 nM | 13.7 nM
7 | NC(=O)c1c(F)cccc1Nc1nc(N[C@@H]2CCCN(S(=O)(=O)CCNC(=O)CCCCCCCCOc3cccc4c3C(=O)N(C3CCC(=O)NC3=O)C4=O)C2)ncc1Br (stereo partly drawn) [Compound 8, 2-((5-bromo-2-(((3R)-1-((2-(9-((2-(2,6-dioxopiperidin-3-yl)-1,3-dioxoisoindolin-4-yl)oxy)nonanamido)ethyl)sulfonyl)piperidin-3-yl)amino)pyrimidin-4-yl)amino)-6-fluorobenzamide] | 347 nM | 241 nM
8 | Cc1ncsc1-c1ccc([C@H](C)NC(=O)[C@@H]2C[C@@H](O)CN2C(=O)[C@@H](NC(=O)CCOCCOCCOCCC(=O)NCCS(=O)(=O)N2CCC(Nc3ncc(Br)c(Nc4cccc(F)c4C(N)=O)n3)CC2)C(C)(C)C)cc1 [Compound 9, (2S,4R)-1-((S)-19-((4-((5-bromo-4-((2-carbamoyl-3-fluorophenyl)amino)pyrimidin-2-yl)amino)piperidin-1-yl)sulfonyl)-2-(tert-butyl)-4,16-dioxo-7,10,13-trioxa-3,17-diazanonadecanoyl)-4-hydroxy-N—((S)-1-(4-(4-methylthiazol-5-yl)phenyl)ethyl)pyrrolidine-2-carboxamide] | 7.5 nM | 4.1 nM
9 | Cc1ncsc1-c1ccc([C@H](C)NC(=O)[C@@H]2C[C@@H](O)CN2C(=O)[C@@H](NC(=O)CCCCC(=O)NCCS(=O)(=O)N2CCC(Nc3ncc(Br)c(Nc4cccc(F)c4C(N)=O)n3)CC2)C(C)(C)C)cc1 [Compound 10, N^1-(2-((4-((5-bromo-4-((2-carbamoyl-3-fluorophenyl)amino)pyrimidin-2-yl)amino)piperidin-1-yl)sulfonyl)ethyl)-N^6—((S)-1-((2S,4R)-4-hydroxy-2-(((S)-1-(4-(4-methylthiazol-5-yl)phenyl)ethyl)carbamoyl)pyrrolidin-1-yl)-3,3-dimethyl-1-oxobutan-2-yl)adipamide] | 9.1 nM | 4.3 nM
10 | Cc1ncsc1-c1ccc([C@H](C)NC(=O)[C@@H]2C[C@@H](O)CN2C(=O)[C@@H](NC(=O)CCOCCOCCC(=O)NCCS(=O)(=O)N2CCC(Nc3ncc(Br)c(Nc4cccc(F)c4C(N)=O)n3)CC2)C(C)(C)C)cc1 [Compound 11, (2S,4R)-1-((S)-16-((4-((5-bromo-4-((2-carbamoyl-3-fluorophenyl)amino)pyrimidin-2-yl)amino)piperidin-1-yl)sulfonyl)-2-(tert-butyl)-4,13-dioxo-7,10-dioxa-3,14-diazahexadecanoyl)-4-hydroxy-N—((S)-1-(4-(4-methylthiazol-5-yl)phenyl)ethyl)pyrrolidine-2-carboxamide] |  | 4.8 nM

Results, then the compound that gave them:

Row | IC50 (CDK2/Cyclin A) | IC50 (CDK5/p25) | Compound
11 |  | 3.7 nM | Cc1ncsc1-c1ccc([C@H](C)NC(=O)[C@@H]2C[C@@H](O)CN2C(=O)[C@@H](NC(=O)CCC(=O)NCCS(=O)(=O)N2CCC(Nc3ncc(Br)c(Nc4cccc(F)c4C(N)=O)n3)CC2)C(C)(C)C)cc1 [Compound 12, N^1-(2-((4-((5-bromo-4-((2-carbamoyl-3-fluorophenyl)amino)pyrimidin-2-yl)amino)piperidin-1-yl)sulfonyl)ethyl)-N^4—((S)-1-((2S,4R)-4-hydroxy-2-(((S)-1-(4-(4-methylthiazol-5-yl)phenyl)ethyl)carbamoyl)pyrrolidin-1-yl)-3,3-dimethyl-1-oxobutan-2-yl)succinamide]
12 |  | 4.3 nM | NC(=O)c1c(F)cccc1Nc1nc(NC2CCN(S(=O)(=O)CCNC(=O)CCC(=O)NCCCCCNc3cccc4c3C(=O)N(C3CCC(=O)NC3=O)C4=O)CC2)ncc1Br (stereo not drawn) [Compound 13, N^1-(2-((4-((5-bromo-4-((2-carbamoyl-3-fluorophenyl)amino)pyrimidin-2-yl)amino)piperidin-1-yl)sulfonyl)ethyl)-N^4-(5-((2-(2,6-dioxopiperidin-3-yl)-1,3-dioxoisoindolin-4-yl)amino)pentyl)succinamide]
13 |  | 31.2 nM | NC(=O)c1c(F)cccc1Nc1nc(NC2CCN(S(=O)(=O)CCNC(=O)CCCCCCCCC#Cc3cccc4c3CN(C3CCC(=O)NC3=O)C4=O)CC2)ncc1Br (stereo not drawn) [Compound 14, 2-((5-bromo-2-((1-((2-(11-(2-(2,6-dioxopiperidin-3-yl)-1-oxoisoindolin-4-yl)undec-10-ynamido)ethyl)sulfonyl)piperidin-4-yl)amino)pyrimidin-4-yl)amino)-6-fluorobenzamide]
14 |  | 18.2 nM | NC(=O)c1c(F)cccc1Nc1nc(NC2CCN(S(=O)(=O)CCNC(=O)CCCCCCCCCCc3cccc4c3CN(C3CCC(=O)NC3=O)C4=O)CC2)ncc1Br (stereo not drawn) [Compound 15, 2-((5-bromo-2-((1-((2-(11-(2-(2,6-dioxopiperidin-3-yl)-1-oxoisoindolin-4-yl)undecanamido)ethyl)sulfonyl)piperidin-4-yl)amino)pyrimidin-4-yl)amino)-6-fluorobenzamide]
15 |  | 4370 nM | O=C(CCCCCCCCC#Cc1cccc2c1CN(C1CCC(=O)NC1=O)C2=O)NCCS(=O)(=O)N1CCC(Nc2ncc(Br)c(Nc3cccc4c3OCO4)n2)CC1 (stereo not drawn) [Compound 16, N-(2-((4-((4-(benzo[d][1,3]dioxol-4-ylamino)-5-bromopyrimidin-2-yl)amino)piperidin-1-yl)sulfonyl)ethyl)-11-(2-(2,6-dioxopiperidin-3-yl)-1-oxoisoindolin-4-yl)undec-10-ynamide]
16 | 253 nM | 924 nM | O=C(CCCCCCCCOc1cccc2c1C(=O)N(C1CCC(=O)NC1=O)C2=O)NCCS(=O)(=O)N1CCC(Nc2ncc(Br)c(Nc3cccc4c3OCO4)n2)CC1 (stereo not drawn) [Compound 17, N-(2-((4-((4-(benzo[d][1,3]dioxol-4-ylamino)-5-bromopyrimidin-2-yl)amino)piperidin-1-yl)sulfonyl)ethyl)-9-((2-(2,6-dioxopiperidin-3-yl)-1,3-dioxoisoindolin-4-yl)oxy)nonanamide]
17 | 23.7 nM | 27.4 nM | O=C(CCOCCOCCOCCOCCNc1cccc2c1C(=O)N(C1CCC(=O)NC1=O)C2=O)NCCS(=O)(=O)N1CCC(Nc2ncc(Br)c(N3CCCc4ccccc43)n2)CC1 (stereo not drawn) [Compound 18, N-(2-((4-((5-bromo-4-(3,4-dihydroquinolin-1(2H)-yl)pyrimidin-2-yl)amino)piperidin-1-yl)sulfonyl)ethyl)-1-((2-(2,6-dioxopiperidin-3-yl)-1,3-dioxoisoindolin-4-yl)amino)-3,6,9,12-tetraoxapentadecan-15-amide]
18 | 116 nM | 71.3 nM | NC(=O)c1c(F)cccc1Nc1nc(NC2CCN(S(=O)(=O)CCNC(=O)CCOCCOCCOCCOCCNc3cccc4c3C(=O)N(C3CCC(=O)NC3=O)C4=O)CC23CC3)ncc1Br (stereo not drawn) [Compound 19, N-(2-((8-((5-bromo-4-((2-carbamoyl-3-fluorophenyl)amino)pyrimidin-2-yl)amino)-5-azaspiro[2.5]octan-5-yl)sulfonyl)ethyl)-1-((2-(2,6-dioxopiperidin-3-yl)-1,3-dioxoisoindolin-4-yl)amino)-3,6,9,12-tetraoxapentadecan-15-amide]
